Data taken from patent US20250171437A1 (Agios Pharmaceuticals,Inc., priority 2022, published 2025).

Biological target: T1, human PAH with the R408W mutation (A375 R408W cells) (Homo sapiens, UniProt P00439, R408W)
T1 construct: expressed in transfected cells
T1 sequence (P00439 1-452 R408W): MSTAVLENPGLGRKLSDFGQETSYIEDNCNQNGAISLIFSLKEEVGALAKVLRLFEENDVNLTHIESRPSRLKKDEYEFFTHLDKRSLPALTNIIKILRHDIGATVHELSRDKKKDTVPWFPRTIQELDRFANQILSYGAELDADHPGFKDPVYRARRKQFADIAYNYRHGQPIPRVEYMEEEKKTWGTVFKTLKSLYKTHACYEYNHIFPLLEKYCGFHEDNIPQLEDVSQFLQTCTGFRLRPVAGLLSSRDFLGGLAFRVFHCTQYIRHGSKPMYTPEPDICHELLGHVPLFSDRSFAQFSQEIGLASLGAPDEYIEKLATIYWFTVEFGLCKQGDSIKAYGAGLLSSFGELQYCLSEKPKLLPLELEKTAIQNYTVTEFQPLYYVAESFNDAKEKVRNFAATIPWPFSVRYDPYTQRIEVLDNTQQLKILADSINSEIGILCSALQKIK
Assay: Cell Based Phenylalanine Flux Assay
Conditions: A375 R408W cells; 24 hrs with compound, then 20 μM sepiapterin and 800 μM 13C9,15N-Phenylalanine for 4 hours; 13C-Tyrosine by LC-MS; average where tested multiple times
Method in brief: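 Phenylalanine-to-tyrosine flux is measured in A375 cells carrying stable human R408W PAH. After 24 h compound exposure, 13C9,15N-Phe (800 μM) with sepiapterin (20 μM) is supplied for 4 h and media 13C-Tyr is read by LC-MS; AC50s are binned.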

Row | SMILES | AC50
1 | COc1cccc2nc([C@H]3c4nc[nH]c4CCN3C(=O)c3ncnn3C)oc12 [Example 776, (R)-(4-(7-methoxybenzo[d]oxazol-2-yl)-6,7-dihydro-1H-imidazo[4,5-c]pyridin-5(4H)-yl)(1-methyl-1H-1,2,4-triazol-5-yl)methanone] | 1000 to 5000 nM
2 | COc1cccc2nc([C@@H]3c4nc[nH]c4CCN3C(=O)c3cc(C(F)F)nn3C)oc12 [Example 777, (S)-(3-(difluoromethyl)-1-methyl-1H-pyrazol-5-yl)(4-(7-methoxybenzo[d]oxazol-2-yl)-6,7-dihydro-1H-imidazo[4,5-c]pyridin-5(4H)-yl)methanone] | ≤ 500 nM
3 | COc1cccc2nc([C@H]3c4nc[nH]c4CCN3C(=O)c3cc(C(F)F)nn3C)oc12 [Example 778, (R)-(3-(difluoromethyl)-1-methyl-1H-pyrazol-5-yl)(4-(7-methoxybenzo[d]oxazol-2-yl)-6,7-dihydro-1H-imidazo[4,5-c]pyridin-5(4H)-yl)methanone] | 500 to 1000 nM
4 | Cc1cc(C(=O)N2CCc3[nH]cnc3[C@H]2c2nc3ccccc3o2)n(C)n1 [Example 779, (S)-(4-(benzo[d]oxazol-2-yl)-6,7-dihydro-1H-imidazo[4,5-c]pyridin-5(4H)-yl)(1,3-dimethyl-1H-pyrazol-5-yl)methanone] | 1000 to 5000 nM
5 | Cc1cc(C(=O)N2CCc3[nH]cnc3[C@@H]2c2nc3ccccc3o2)n(C)n1 [Example 780, (R)-(4-(benzo[d]oxazol-2-yl)-6,7-dihydro-1H-imidazo[4,5-c]pyridin-5(4H)-yl)(1,3-dimethyl-1H-pyrazol-5-yl)methanone] | 1000 to 5000 nM
6 | Cc1cc(C(=O)N2CCc3[nH]cnc3[C@H]2c2nc3cccc(C)c3o2)n(C)n1 [Example 781, (S)-(1,3-dimethyl-1H-pyrazol-5-yl)(4-(7-methylbenzo[d]oxazol-2-yl)-6,7-dihydro-1H-imidazo[4,5-c]pyridin-5(4H)-yl)methanone] | ≤ 500 nM
7 | Cc1cc(C(=O)N2CCc3[nH]cnc3[C@@H]2c2nc3cccc(C)c3o2)n(C)n1 [Example 782, (R)-(1,3-dimethyl-1H-pyrazol-5-yl)(4-(7-methylbenzo[d]oxazol-2-yl)-6,7-dihydro-1H-imidazo[4,5-c]pyridin-5(4H)-yl)methanone] | 500 to 1000 nM
8 | Cc1ccc2oc([C@H]3c4nc[nH]c4CCN3C(=O)c3oc(-c4cn(C)cn4)nc3C(F)F)nc2c1 [Example 783, (R)-(4-(difluoromethyl)-2-(1-methyl-1H-imidazol-4-yl)oxazol-5-yl)(4-(5-methylbenzo[d]oxazol-2-yl)-6,7-dihydro-1H-imidazo[4,5-c]pyridin-5(4H)-yl)methanone] | ≤ 500 nM
9 | Cc1ccc2oc([C@@H]3c4nc[nH]c4CCN3C(=O)c3oc(-c4cn(C)cn4)nc3C(F)F)nc2c1 [Example 784, (S)-(4-(difluoromethyl)-2-(1-methyl-1H-imidazol-4-yl)oxazol-5-yl)(4-(5-methylbenzo[d]oxazol-2-yl)-6,7-dihydro-1H-imidazo[4,5-c]pyridin-5(4H)-yl)methanone] | ≤ 500 nM
10 | Cn1cnc(-c2nc(C(F)F)c(C(=O)N3CCc4[nH]cnc4[C@@H]3c3nc4ccccc4o3)o2)c1 [Example 785, (R)-(4-(benzo[d]oxazol-2-yl)-6,7-dihydro-1H-imidazo[4,5-c]pyridin-5(4H)-yl)(4-(difluoromethyl)-2-(1-methyl-1H-imidazol-4-yl)oxazol-5-yl)methanone] | ≥ 5000 nM
11 | Cn1cnc(-c2nc(C(F)F)c(C(=O)N3CCc4[nH]cnc4[C@H]3c3nc4ccccc4o3)o2)c1 [Example 786, (S)-(4-(benzo[d]oxazol-2-yl)-6,7-dihydro-1H-imidazo[4,5-c]pyridin-5(4H)-yl)(4-(difluoromethyl)-2-(1-methyl-1H-imidazol-4-yl)oxazol-5-yl)methanone] | 500 to 1000 nM
12 | Cn1ccc(-c2nc(C(F)(F)F)c(C(=O)N3CCc4[nH]cnc4[C@H]3c3nc4cc(F)ccc4o3)o2)n1 [Example 787, (S)-(4-(5-fluorobenzo[d]oxazol-2-yl)-6,7-dihydro-1H-imidazo[4,5-c]pyridin-5(4H)-yl)(2-(1-methyl-1H-pyrazol-3-yl)-4-(trifluoromethyl)oxazol-5-yl)methanone] | ≤ 500 nM
13 | Cn1ccc(-c2nc(C(F)(F)F)c(C(=O)N3CCc4[nH]cnc4[C@@H]3c3nc4cc(F)ccc4o3)o2)n1 [Example 788, (R)-(4-(5-fluorobenzo[d]oxazol-2-yl)-6,7-dihydro-1H-imidazo[4,5-c]pyridin-5(4H)-yl)(2-(1-methyl-1H-pyrazol-3-yl)-4-(trifluoromethyl)oxazol-5-yl)methanone] | 1000 to 5000 nM
14 | Cn1cnc(-c2nc(C(F)(F)F)c(C(=O)N3CCc4[nH]cnc4[C@@H]3c3nc4cc(F)ccc4o3)o2)c1 [Example 789, (R)-(4-(5-fluorobenzo[d]oxazol-2-yl)-6,7-dihydro-1H-imidazo[4,5-c]pyridin-5(4H)-yl)(2-(1-methyl-1H-imidazol-4-yl)-4-(trifluoromethyl)oxazol-5-yl)methanone] | 1000 to 5000 nM
15 | Cn1cnc(-c2nc(C(F)(F)F)c(C(=O)N3CCc4[nH]cnc4[C@H]3c3nc4cc(F)ccc4o3)o2)c1 [Example 790, (S)-(4-(5-fluorobenzo[d]oxazol-2-yl)-6,7-dihydro-1H-imidazo[4,5-c]pyridin-5(4H)-yl)(2-(1-methyl-1H-imidazol-4-yl)-4-(trifluoromethyl)oxazol-5-yl)methanone] | 500 to 1000 nM
16 | Cn1cncc1-c1nc(C(F)(F)F)c(C(=O)N2CCc3[nH]cnc3[C@H]2c2nc3cc(F)ccc3o2)o1 [Example 791, (S)-(4-(5-fluorobenzo[d]oxazol-2-yl)-6,7-dihydro-1H-imidazo[4,5-c]pyridin-5(4H)-yl)(2-(1-methyl-1H-imidazol-5-yl)-4-(trifluoromethyl)oxazol-5-yl)methanone] | 500 to 1000 nM
17 | Cn1cncc1-c1nc(C(F)(F)F)c(C(=O)N2CCc3[nH]cnc3[C@@H]2c2nc3cc(F)ccc3o2)o1 [Example 792, (R)-(4-(5-fluorobenzo[d]oxazol-2-yl)-6,7-dihydro-1H-imidazo[4,5-c]pyridin-5(4H)-yl)(2-(1-methyl-1H-imidazol-5-yl)-4-(trifluoromethyl)oxazol-5-yl)methanone] | 1000 to 5000 nM
18 | Cc1ncoc1C(=O)N1CCc2[nH]cnc2[C@H]1c1nc2ccccc2o1 [Example 793, (S)-(4-(benzo[d]oxazol-2-yl)-6,7-dihydro-1H-imidazo[4,5-c]pyridin-5(4H)-yl)(4-methyloxazol-5-yl)methanone] | ≤ 500 nM

Second part, the compound after the results:

Row | AC50 | SMILES
19 | 1000 to 5000 nM | Cc1ncoc1C(=O)N1CCc2[nH]cnc2[C@@H]1c1nc2ccccc2o1 [Example 794, (R)-(4-(benzo[d]oxazol-2-yl)-6,7-dihydro-1H-imidazo[4,5-c]pyridin-5(4H)-yl)(4-methyloxazol-5-yl)methanone]
20 | ≤ 500 nM | O=C(c1ocnc1C(F)(F)F)N1CCc2[nH]cnc2[C@H]1c1nc2c(F)ccc(F)c2o1 [Example 795, (S)-(4-(4,7-difluorobenzo[d]oxazol-2-yl)-6,7-dihydro-1H-imidazo[4,5-c]pyridin-5(4H)-yl)(4-(trifluoromethyl)oxazol-5-yl)methanone]
21 | 500 to 1000 nM | O=C(c1ocnc1C(F)(F)F)N1CCc2[nH]cnc2[C@@H]1c1nc2c(F)ccc(F)c2o1 [Example 796, (R)-(4-(4,7-difluorobenzo[d]oxazol-2-yl)-6,7-dihydro-1H-imidazo[4,5-c]pyridin-5(4H)-yl)(4-(trifluoromethyl)oxazol-5-yl)methanone]
22 | ≤ 500 nM | O=C(c1ocnc1C(F)(F)F)N1CCc2[nH]cnc2[C@H]1c1nc2ccccc2o1 [Example 797, (S)-(4-(benzo[d]oxazol-2-yl)-6,7-dihydro-1H-imidazo[4,5-c]pyridin-5(4H)-yl)(4-(trifluoromethyl)oxazol-5-yl)methanone]
23 | 500 to 1000 nM | O=C(c1ocnc1C(F)(F)F)N1CCc2[nH]cnc2[C@@H]1c1nc2ccccc2o1 [Example 798, (R)-(4-(benzo[d]oxazol-2-yl)-6,7-dihydro-1H-imidazo[4,5-c]pyridin-5(4H)-yl)(4-(trifluoromethyl)oxazol-5-yl)methanone]
24 | 500 to 1000 nM | O=C(c1nnc(-c2ncccc2F)o1)N1CCc2[nH]cnc2[C@@H]1c1nc2c(F)ccc(F)c2o1 [Example 799, (R)-(4-(4,7-difluorobenzo[d]oxazol-2-yl)-6,7-dihydro-1H-imidazo[4,5-c]pyridin-5(4H)-yl)(5-(3-fluoropyridin-2-yl)-1,3,4-oxadiazol-2-yl)methanone]
25 | ≤ 500 nM | O=C(c1nnc(-c2ncccc2F)o1)N1CCc2[nH]cnc2[C@H]1c1nc2c(F)ccc(F)c2o1 [Example 800, (S)-(4-(4,7-difluorobenzo[d]oxazol-2-yl)-6,7-dihydro-1H-imidazo[4,5-c]pyridin-5(4H)-yl)(5-(3-fluoropyridin-2-yl)-1,3,4-oxadiazol-2-yl)methanone]
26 | ≤ 500 nM | O=C(c1nnc(-c2cnn(C(F)F)c2)o1)N1CCc2[nH]cnc2[C@H]1c1nc2c(F)ccc(F)c2o1 [Example 801, (S)-(4-(4,7-difluorobenzo[d]oxazol-2-yl)-6,7-dihydro-1H-imidazo[4,5-c]pyridin-5(4H)-yl)(5-(1-(difluoromethyl)-1H-pyrazol-4-yl)-1,3,4-oxadiazol-2-yl)methanone]
